This experiment concerns CD8F1 mice, subcutaneous mammary adenocarcinoma, T/C%. Nature of the experiment: NCI In Vivo Anticancer Drug Screen. Data for tumor model Mammary Adenocarcinoma CD8F1 (subcutaneous) in CD8F1. The note with it: higher = larger tumour. Put shortly: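 Antitumor activity is assessed in transplantable-tumor mice by comparing the treated group with a vehicle-treated control group. Survival or tumor size serves as the measure, reported as T divided by C.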

Setting [1] is: endpoint: median tumor weight change, dose: 125.0 mg/kg/injection, schedule: Q01DX001 (ip), vehicle: saline with Tween-80.
The mark [2] stands for this setting: endpoint: median tumor weight change, dose: 250.0 mg/kg/injection, schedule: Q01DX001 (ip), vehicle: saline with Tween-80.
Setting [3] is: endpoint: median tumor weight change, dose: 500.0 mg/kg/injection, schedule: Q01DX001 (ip), vehicle: saline with Tween-80.
Where [4] appears, read: endpoint: median tumor weight (est.), dose: 12.5 mg/kg/injection, schedule: Q07DX005 (ip), vehicle: saline.
Setting [5] is: endpoint: median tumor weight (est.), dose: 25.0 mg/kg/injection, schedule: Q07DX005 (ip), vehicle: saline.
The mark [6] stands for this setting: endpoint: median tumor weight (est.), dose: 50.0 mg/kg/injection, schedule: Q07DX005 (ip), vehicle: saline.
[7] abbreviates: endpoint: median tumor weight (est.), dose: 100.0 mg/kg/injection, schedule: Q07DX005 (ip), vehicle: saline.
Where [8] appears, read: endpoint: median tumor weight (est.), dose: 200.0 mg/kg/injection, schedule: Q07DX005 (ip), vehicle: saline.
Setting [9] is: endpoint: median tumor weight (est.), dose: 12.5 mg/kg/injection, schedule: Q07DX005 (ip), vehicle: saline with Tween-80.
[10] abbreviates: endpoint: median tumor weight (est.), dose: 50.0 mg/kg/injection, schedule: Q07DX005 (ip), vehicle: saline with Tween-80.
The mark [11] stands for this setting: endpoint: median tumor weight (est.), dose: 400.0 mg/kg/injection, schedule: Q07DX005 (ip), vehicle: saline with Tween-80.
The mark [12] stands for this setting: endpoint: median tumor weight (est.), dose: 25.0 mg/kg/injection, schedule: Q07DX005 (ip), vehicle: saline with Tween-80.
[13] abbreviates: endpoint: median tumor weight (est.), dose: 100.0 mg/kg/injection, schedule: Q07DX005 (ip), vehicle: saline with Tween-80.
Setting [14] is: endpoint: median tumor weight (est.), dose: 200.0 mg/kg/injection, schedule: Q07DX005 (ip), vehicle: saline with Tween-80.

“And” between values parts separate entries of the source, which are not always exact repeats. Identical values can stand only once. Results filed as inconclusive are left out.

For the molecule `[O-][n+]1c(CN2CCCCC2)nc2cccc3c2c1-c1ccccc1-3`, the T/C reads like this: under setting [1], 78 % of control; under setting [2], 104 % of control; under setting [3], 84 % of control.
With `COc1ccc(/C=C/C(=O)c2cc(C(=O)O)c(OC)cc2OC)cc1OC`, the T/C is 326 % of control under setting [4]; 117 % of control under setting [5]; 192 % of control under setting [6]; 85 % of control (endpoint: median tumor weight (est.), dose: 50.0 mg/kg/injection, schedule: Q07DX005 (ip), vehicle: suspension in saline); 84 % of control under setting [7]; 107 % of control (endpoint: median tumor weight (est.), dose: 100.0 mg/kg/injection, schedule: Q07DX005 (ip), vehicle: suspension in saline). For the same molecule, the T/C is 42 % of control under setting [8] and 53 % of control (endpoint: median tumor weight (est.), dose: 200.0 mg/kg/injection, schedule: Q07DX005 (ip), vehicle: suspension in saline).
In the case of `Cn1/c2cc/c1=C(\c1ccc(S(=O)(=O)O)cc1)c1ccc([n-]1)/C(c1ccc(S(=O)(=O)O)cc1)=c1/cc/c([nH]1)=C(\c1ccc(S(=O)(=O)O)cc1)c1ccc([n-]1)/C=2c1ccc(S(=O)(=O)O)cc1.O.O=S(=O)(O)C(F)(F)F.[Cu+2]`, the T/C (endpoint: median tumor weight change, dose: 62.5 mg/kg/injection, schedule: Q01DX001 (ip), vehicle: saline) is 124 % of control.
On to `COc1cccc2c1C(=O)c1c(O)c3c(c(O)c1C2=O)C[C@@](O)(C(=O)CO)C[C@@H]3OC1CC(OC(C)=O)C(OC(C)=O)C(C)O1` (some centres undefined), for which the T/C is, setting by setting: (endpoint: median tumor weight (est.), dose: 3.12 mg/kg/injection, schedule: Q07DX005 (ip), vehicle: distilled water + Tween-80) 65 % of control; (endpoint: median tumor weight (est.), dose: 6.25 mg/kg/injection, schedule: Q07DX005 (ip), vehicle: distilled water + Tween-80) 58 % of control; (endpoint: median tumor weight (est.), dose: 12.5 mg/kg/injection, schedule: Q07DX005 (ip), vehicle: distilled water + Tween-80) 6 % of control; (endpoint: median tumor weight (est.), dose: 25.0 mg/kg/injection, schedule: Q07DX005 (ip), vehicle: distilled water + Tween-80) 13 % of control.
Regarding `CCCC(=O)Oc1ccc(/C=N/NC(N)=S)nc1`, the T/C is, setting by setting: under setting [9], 279 % of control and 100 % of control; under setting [10], 83 % of control and 101 % of control; under setting [11], 121 % of control.
`C=CCc1cn(C2CC(O)C(CO)O2)c(=O)[nH]c1=O` (centres undefined): the T/C under setting [5] is 58 % of control; the T/C under setting [6] is 79 % of control; the T/C under setting [7] was 86 % of control; the T/C under setting [8] was 248 % of control; the T/C (endpoint: median tumor weight (est.), dose: 400.0 mg/kg/injection, schedule: Q07DX005 (ip), vehicle: saline) was 75 % of control; the T/C (endpoint: median tumor weight (est.), dose: 800.0 mg/kg/injection, schedule: Q07DX005 (ip), vehicle: saline) is 79 % of control.
For the molecule `CCCC(=O)O.CCCC(=O)O.CCCC(=O)O.CCCC(=O)O.[Rh].[Rh]`, the T/C was 116 % of control (endpoint: median tumor weight change, dose: 0.62 mg/kg/injection, schedule: Q01DX001 (ip), vehicle: saline + alcohol); 81 % of control and 90 % of control (endpoint: median tumor weight change, dose: 1.25 mg/kg/injection, schedule: Q01DX001 (ip), vehicle: saline + alcohol); 56 % of control (endpoint: median tumor weight change, dose: 2.5 mg/kg/injection, schedule: Q01DX001 (ip), vehicle: saline + alcohol).
`O=C1CN(CN2CCOCC2)C(=O)CN1CN1CCOCC1`: the T/C under setting [4] was 170 % of control, the T/C under setting [6] was 153 % of control and the T/C under setting [8] was 100 % of control.
For the molecule `O=Cc1ccc(C(Cl)(Cl)Cl)cc1`, the T/C is, setting by setting: under setting [9], 94 % of control; under setting [12], 55 % of control; under setting [10], 97 % of control; under setting [13], 68 % of control; under setting [14], 81 % of control.
On to `CC[C@@]1(O)C[C@H](OC2CC(N(C)C)C(OC3CC(O)C(OC4CCC(=O)C(C)O4)C(C)O3)C(C)O2)c2c(cc3c(c2O)C(=O)c2c(O)ccc(O)c2C3=O)[C@H]1C(=O)OC` (some centres undefined), for which the T/C runs as follows: (endpoint: mean tumor weight, dose: 0.5 mg/kg/injection, schedule: Q07DX006 (ip), vehicle: water) 43 % of control; (endpoint: mean tumor weight, dose: 1.0 mg/kg/injection, schedule: Q07DX006 (ip), vehicle: water) 35 % of control; (endpoint: mean tumor weight, dose: 2.0 mg/kg/injection, schedule: Q07DX006 (ip), vehicle: water) 5 % of control; (endpoint: mean tumor weight, dose: 4.0 mg/kg/injection, schedule: Q07DX006 (ip), vehicle: water) 17 % of control; (endpoint: median tumor weight (est.), dose: 0.5 mg/kg/injection, schedule: Q07DX005 (ip), vehicle: water) 69 % of control and 90 % of control; (endpoint: median tumor weight (est.), dose: 1.0 mg/kg/injection, schedule: Q07DX005 (ip), vehicle: water) 83 % of control. Moreover, the T/C is 37 % of control and 53 % of control (endpoint: median tumor weight (est.), dose: 2.0 mg/kg/injection, schedule: Q07DX005 (ip), vehicle: water); 8 % of control and 26 % of control (endpoint: median tumor weight (est.), dose: 4.0 mg/kg/injection, schedule: Q07DX005 (ip), vehicle: water); 1 % of control (endpoint: median tumor weight (est.), dose: 8.0 mg/kg/injection, schedule: Q07DX005 (ip), vehicle: water).
Turning to `CSC1SCC2C(=O)N(C)C(C(C)C)C(=O)OCC(NC(=O)c3cnc4ccccc4n3)C(=O)NC(C)C(=O)N(C)C1C(=O)N(C)C(C(C)C)C(=O)OCC(NC(=O)c1cnc3ccccc3n1)C(=O)NC(C)C(=O)N2C` (centres undefined), the T/C (endpoint: mean tumor weight, dose: 7.5 micrograms/kg/injection, schedule: Q07DX005 (ip), vehicle: saline) was 67 % of control; the T/C (endpoint: mean tumor weight, dose: 15.0 micrograms/kg/injection, schedule: Q07DX005 (ip), vehicle: saline) is 83 % of control; the T/C (endpoint: median tumor weight (est.), dose: 7.5 micrograms/kg/injection, schedule: Q07DX005 (ip), vehicle: saline) is 82 % of control; the T/C (endpoint: median tumor weight (est.), dose: 15.0 micrograms/kg/injection, schedule: Q07DX005 (ip), vehicle: saline) was 67 % of control; the T/C (endpoint: median tumor weight (est.), dose: 30.0 micrograms/kg/injection, schedule: Q07DX005 (ip), vehicle: saline) is 97 % of control; the T/C (endpoint: median tumor weight (est.), dose: 60.0 micrograms/kg/injection, schedule: Q07DX005 (ip), vehicle: saline) was 117 % of control. Also, the T/C (endpoint: median tumor weight (est.), dose: 120.0 micrograms/kg/injection, schedule: Q07DX005 (ip), vehicle: saline) was 76 % of control.
For the molecule `Nc1nnc[se]1`, the T/C was 80 % of control (endpoint: median tumor weight change, dose: 15.6 mg/kg/injection, schedule: Q01DX001 (ip), vehicle: saline with Tween-80); 123 % of control (endpoint: median tumor weight change, dose: 31.25 mg/kg/injection, schedule: Q01DX001 (ip), vehicle: saline with Tween-80); 84 % of control (endpoint: median tumor weight change, dose: 62.5 mg/kg/injection, schedule: Q01DX001 (ip), vehicle: saline with Tween-80); 94 % of control under setting [1]; 50 % of control under setting [2]; 38 % of control under setting [3].
Turning to `COC1=C(OC)C(=O)C(SC/C=C(\C)CCCC(C)CCCC(C)CCCC(C)C)=CC1=O` (centres undefined), the T/C is 164 % of control under setting [9]; 110 % of control under setting [12]; 32 % of control under setting [10]; 68 % of control under setting [13]; 85 % of control under setting [14]; 52 % of control under setting [11].
As to `CCc1nc(N)nc(N)c1-c1ccc(Cl)c(Cl)c1`, the T/C is 107 % of control (endpoint: mean tumor weight (est.), dose: 40.0 mg/kg/injection, schedule: Q07DX003 (ip), vehicle: saline with Tween-80); 100 % of control (endpoint: mean tumor weight (est.), dose: 50.0 mg/kg/injection, schedule: Q07DX003 (ip), vehicle: saline with Tween-80); 93 % of control (endpoint: mean tumor weight (est.), dose: 60.0 mg/kg/injection, schedule: Q07DX003 (ip), vehicle: saline with Tween-80); 35 % of control (endpoint: mean tumor weight (est.), dose: 60.0 mg/kg/injection, schedule: Q07DX004 (ip), vehicle: saline with Tween-80); 50 % of control (endpoint: mean tumor weight (est.), dose: 80.0 mg/kg/injection, schedule: Q07DX004 (ip), vehicle: saline with Tween-80).
As to `C[n+]1c(/C=C\C=C\N2CCCCC2)sc2ccccc21`, the T/C was 114 % of control (endpoint: median tumor weight (est.), dose: 0.5 mg/kg/injection, schedule: Q07DX005 (ip), vehicle: Klucel (hydroxypropylcellulose) (HPC)) and 108 % of control (endpoint: median tumor weight (est.), dose: 1.0 mg/kg/injection, schedule: Q07DX005 (ip), vehicle: Klucel (hydroxypropylcellulose) (HPC)).
As for `O=C(Nc1cccc2c(OC(=O)C(Cl)Cl)c(N=Nc3ccc(S(=O)(=O)Nc4nccs4)cc3)cc(N=Nc3ccc(S(=O)(=O)Nc4nccs4)cc3)c12)C(Cl)Cl` (tested in a mixture with another compound), the T/C is 106 % of control under setting [2]; 124 % of control under setting [3]; 37 % of control (endpoint: median tumor weight change, dose: 1000.0 mg/kg/injection, schedule: Q01DX001 (ip), vehicle: saline with Tween-80).
